Patent US11655235B2, “Pyrrolidine and piperidine compounds” (YUHAN CORPORATION, priority 2019, dated 2023)

Tests used:
DPP4 = DPP4 (Homo sapiens, UniProt P27487); test: DPP4 inhibition, fluorogenic substrate H-Gly-Pro-AMC; type: biochemical; design: purchased R&D Systems; conditions: recombinant human DPP4
Recombinant human FAP = molecular target: T1, Recombinant human FAP (Homo sapiens, UniProt Q12884); test: FAP FRET assay, FGF21-sequence FRET peptide substrate; type: biochemical; conditions: FRET peptide with human FGF21 sequence, 6 μM, 37° C.
T1 construct: purchased R&D systems
T1 sequence (Q12884 1-760): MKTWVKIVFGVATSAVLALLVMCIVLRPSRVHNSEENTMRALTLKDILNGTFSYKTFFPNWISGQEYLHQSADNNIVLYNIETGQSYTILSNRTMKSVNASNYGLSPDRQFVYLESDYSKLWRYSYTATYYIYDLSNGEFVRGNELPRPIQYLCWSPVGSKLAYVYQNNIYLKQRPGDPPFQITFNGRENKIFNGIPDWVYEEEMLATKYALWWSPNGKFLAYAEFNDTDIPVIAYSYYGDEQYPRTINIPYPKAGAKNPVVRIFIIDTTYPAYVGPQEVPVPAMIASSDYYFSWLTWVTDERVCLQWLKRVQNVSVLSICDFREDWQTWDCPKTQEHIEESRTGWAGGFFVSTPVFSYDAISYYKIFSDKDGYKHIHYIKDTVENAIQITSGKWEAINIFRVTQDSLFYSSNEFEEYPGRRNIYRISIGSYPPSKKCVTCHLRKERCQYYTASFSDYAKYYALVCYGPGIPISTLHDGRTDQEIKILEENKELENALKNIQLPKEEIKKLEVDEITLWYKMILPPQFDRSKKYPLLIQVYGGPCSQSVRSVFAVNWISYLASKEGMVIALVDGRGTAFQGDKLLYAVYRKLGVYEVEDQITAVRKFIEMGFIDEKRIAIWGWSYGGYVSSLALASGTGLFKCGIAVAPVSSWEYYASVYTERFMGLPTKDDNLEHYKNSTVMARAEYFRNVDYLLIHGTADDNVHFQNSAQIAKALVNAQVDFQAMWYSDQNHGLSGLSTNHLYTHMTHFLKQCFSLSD
Procedure: The compounds according to the present technology were evaluated in terms of the inhibitory effect on the activity of dipeptidyl peptidases including FAP by using a substrate producing fluorescent substances upon enzymatic decomposition. The test was conducted at 25° C. to get a final reaction volume of 100 μL in a 96 black well plate. […] Briefly, the test compounds were dissolved in dimethyl sulfoxide (DMSO) at a concentration of 20 mM and then subjected to serial dilution, thereby creating an 8 point curve. As for the control group, a 6 point curve created by serial dilution of Talabostat in the same buffer solution was used. Fluorescence intensity was measured using a microplate reader (Flexstation3, Molecular Devices) under the wavelength condition exciting at 380 nm and reading the emission at 460 nm. The inhibitory effect of the test compounds was measured as a decrease (%) in the signal rate as compared to the control group without any inhibitor. Data was fixed to a logistic model with four variables and IC50 value was calculated using GraphPad Prism program. For the FAP FRET assay, recombinant human FAP (R&D systems) was diluted with 50 mM HEPES (pH 7.2) buffer comprising 150 mM of sodium chloride, 0.1 mg/ml of bovine serum albumin (BSA) and 1 mM EDTA to be 10 ng per final reaction. The test compounds were subjected to serial dilution in a buffer under the condition containing up to 0.1% of DMSO. FRET peptides containing human FGF21 sequence ([…]) conjugated with HyLite Fluor 488 and dark quencher QXL 520 (Anaspec) was used as a substrate. By dissolving in DMSO and then diluting in the same buffer, the substrate was added to be 6 μM per final reaction. All reactions of FRET assay was conducted at 37° C.

DPP4, sequence (P27487 whole entry): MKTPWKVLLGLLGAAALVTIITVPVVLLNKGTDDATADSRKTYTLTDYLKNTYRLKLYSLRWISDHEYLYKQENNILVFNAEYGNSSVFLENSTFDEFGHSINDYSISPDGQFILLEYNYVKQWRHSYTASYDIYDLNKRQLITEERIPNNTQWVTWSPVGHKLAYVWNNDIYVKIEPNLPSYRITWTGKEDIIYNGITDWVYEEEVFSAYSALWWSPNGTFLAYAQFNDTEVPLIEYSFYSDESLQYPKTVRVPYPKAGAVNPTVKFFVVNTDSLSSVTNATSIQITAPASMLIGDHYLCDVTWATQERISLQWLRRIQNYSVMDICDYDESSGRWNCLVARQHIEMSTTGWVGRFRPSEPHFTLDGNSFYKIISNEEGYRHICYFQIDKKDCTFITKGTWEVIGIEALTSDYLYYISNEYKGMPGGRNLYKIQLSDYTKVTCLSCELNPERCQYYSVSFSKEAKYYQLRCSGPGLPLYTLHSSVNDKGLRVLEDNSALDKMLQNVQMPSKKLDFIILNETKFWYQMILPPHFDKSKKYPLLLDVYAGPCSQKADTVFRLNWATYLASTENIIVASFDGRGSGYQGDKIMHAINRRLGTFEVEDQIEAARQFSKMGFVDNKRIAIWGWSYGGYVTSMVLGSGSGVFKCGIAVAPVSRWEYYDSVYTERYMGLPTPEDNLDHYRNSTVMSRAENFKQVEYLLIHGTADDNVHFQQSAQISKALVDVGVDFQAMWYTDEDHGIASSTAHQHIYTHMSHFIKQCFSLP

Row | Compound | IC50 (DPP4) | IC50 (Recombinant human FAP)
1 | COc1ccc2cc(N(C)C3CCN(CC(=O)N4C[C@@H](F)C[C@H]4C#N)CC3)cnc2c1 [Example 328, (2S,4S)-4-fluoro-1-(2-(4-((7-methoxyquinolin-3-yl)(methyl)amino)piperidin-1-yl)acetyl)pyrrolidine-2-carbonitrile] | 21400 nM | 6 nM
2 | COc1cccc2cc(N(C)C3CCN(CC(=O)N4C[C@@H](F)C[C@H]4C#N)CC3)cnc12 [Example 329, (2S,4S)-4-fluoro-1-[2-[4-[(8-methoxy-3-quinolyl)-methyl-amino]-1-piperidyl]acetyl]pyrrolidine-2-carbonitrile] | 26300 nM | 7.5 nM
3 | Cc1cccc2c(NC3CCN(CC(=O)N4C[C@@H](F)C[C@H]4C#N)CC3)ccnc12 [Example 343, (2S,4S)-4-fluoro-1-[2-[4-[(8-methyl-4-quinolyl)amino]-1-piperidyl]acetyl]pyrrolidine-2-carbonitrile] | 17400 nM | 30.7 nM
4 | Cc1ccc2ncc(NC3CCN(CC(=O)N4C[C@@H](F)C[C@H]4C#N)CC3)cc2c1 [Example 363, (2S,4S)-4-fluoro-1-[2-[4-[(6-methyl-3-quinolyl)amino]-1-piperidyl]acetyl]pyrrolidine-2-carbonitrile] | ≥ 10000 nM | 30.6 nM
5 | N#C[C@@H]1C[C@H](F)CN1C(=O)CN1CCC(Nc2cnc3ccc(F)cc3c2)CC1 [Example 364, (2S,4S)-4-fluoro-1-[2-[4-[(6-fluoro-3-quinolyl)amino]-1-piperidyl]acetyl]pyrrolidine-2-carbonitrile] | 9130 nM | 17.2 nM
6 | COc1ccc2ncc(NC3CCN(CC(=O)N4C[C@@H](F)C[C@H]4C#N)CC3)cc2c1 [Example 365, (2S,4S)-4-fluoro-1-[2-[4-[(6-methoxy-3-quinolyl)amino]-1-piperidyl]acetyl]pyrrolidine-2-carbonitrile] | ≥ 10000 nM | 22.3 nM
7 | COc1ccc2cc(NC3CCN(CC(=O)N4C[C@@H](F)C[C@H]4C#N)CC3)cnc2c1 [Example 366, (2S,4S)-4-fluoro-1-[2-[4-[(7-methoxy-3-quinolyl)amino]-1-piperidyl]acetyl]pyrrolidine-2-carbonitrile] | ≥ 10000 nM | 36 nM
8 | COc1cccc2cc(NC3CCN(CC(=O)N4C[C@@H](F)C[C@H]4C#N)CC3)cnc12 [Example 367, (2S,4S)-4-fluoro-1-[2-[4-[(8-methoxy-3-quinolyl)amino]-1-piperidyl]acetyl]pyrrolidine-2-carbonitrile] | ≥ 10000 nM | 28.1 nM
9 | N#C[C@@H]1C[C@H](F)CN1C(=O)CN1CCC(Nc2cnc3ncccc3c2)CC1 [Example 368, (2S,4S)-4-fluoro-1-[2-[4-(1,8-naphthyridin-3-ylamino)-1-piperidyl]acetyl]pyrrolidine-2-carbonitrile] | ≥ 10000 nM | 36.7 nM
10 | N#C[C@@H]1C[C@H](F)CN1C(=O)CN1CCC(Nc2cnc3nc(Cl)ccc3c2)CC1 [Example 369, (2S,4S)-1-[2-[4-[(7-chloro-1,8-naphthyridin-3-yl)amino]-1-piperidyl]acetyl]-4-fluoro-pyrrolidine-2-carbonitrile] | ≥ 10000 nM | 62.1 nM
11 | CCOc1ccc(NC2CCN(CC(=O)N3CCC[C@H]3C#N)CC2)c2cccnc12 [Example 370, (2S)-1-[2-[4-[(8-ethoxy-5-quinolyl)amino]-1-piperidyl]acetyl]pyrrolidine-2-carbonitrile] | 36800 nM | 11 nM
12 | N#C[C@@H]1C[C@H](F)CN1C(=O)CN1CCC(Nc2cc(F)c3ncccc3c2)CC1 [Example 375, (2S,4S)-4-fluoro-1-[2-[4-[(8-fluoro-6-quinolyl)amino]-1-piperidyl]acetyl]pyrrolidine-2-carbonitrile] | 6960 nM | 22.9 nM
13 | N#C[C@@H]1CCCN1C(=O)CN1CCC(Nc2cc(=O)oc3ccccc23)CC1 [Example 378, (2S)-1-[2-[4-[(2-oxochromen-4-yl)amino]-1-piperidyl]acetyl]pyrrolidine-2-carbonitrile] | 24500 nM | 99.2 nM
14 | N#C[C@@H]1C[C@H](F)CN1C(=O)CN1CCC(Nc2ccnc3cccnc23)CC1 [Example 380, (2S,4S)-4-fluoro-1-[2-[4-(1,5-naphthyridin-4-ylamino)-1-piperidyl]acetyl]pyrrolidine-2-carbonitrile] | 8160 nM | 77.1 nM
15 | N#C[C@@H]1C[C@H](F)CN1C(=O)CN1CCC(Nc2ccc3nc(C(F)(F)F)ccc3c2)CC1 [Example 381, (2S,4S)-4-fluoro-1-[2-[4-[[2-(trifluoromethyl)-6-quinolyl]amino]-1-piperidyl]acetyl]pyrrolidine-2-carbonitrile] | 10600 nM | 14.3 nM
16 | N#C[C@@H]1C[C@H](F)CN1C(=O)CN1CCC(Nc2cccc3ncc(C(=O)Nc4ccccc4)cc23)CC1 [Example 388, 5-[[1-[2-oxo-2-[(2S,4S)-2-cyano-4-fluoro-pyrrolidin-1-yl]ethyl]-4-piperidyl]amino]-N-phenyl-quinoline-3-carboxamide] | 6890 nM | 70.2 nM

These reach a lower IC50 (DPP4). Values come first.

Row | IC50 (DPP4) | IC50 (Recombinant human FAP) | Compound
17 | 6470 nM | 19.3 nM | N#C[C@@H]1C[C@H](F)CN1C(=O)CN1CCC(Nc2ccnc3c(F)cccc23)CC1 [Example 345, (2S,4S)-4-fluoro-1-[2-[4-[(8-fluoro-4-quinolyl)amino]-1-piperidyl]acetyl]pyrrolidine-2-carbonitrile]
18 | 5670 nM | 31.6 nM | Cc1cc(NC2CCN(CC(=O)N3C[C@@H](F)C[C@H]3C#N)CC2)cc2cccnc12 [Example 374, (2S,4S)-4-fluoro-1-[2-[4-[(8-methyl-6-quinolyl)amino]-1-piperidyl]acetyl]pyrrolidine-2-carbonitrile]
19 | 3890 nM | 67.5 nM | CN(Cc1ccccc1)C(=O)c1cnc2cccc(NC3CCN(CC(=O)N4C[C@@H](F)C[C@H]4C#N)CC3)c2c1 [Example 389, N-benzyl-N-methyl-5-[[1-[2-oxo-2-[(2S,4S)-2-cyano-4-fluoro-pyrrolidin-1-yl]ethyl]-4-piperidyl]amino]quinoline-3-carboxamide]
20 | 3500 nM | 27.5 nM | CN(C)C(=O)c1ccc(NC2CCN(CC(=O)N3C[C@@H](F)C[C@H]3C#N)CC2)c2cccnc12 [Example 391, N,N-dimethyl-5-[[1-[2-oxo-2-[(2S,4S)-2-cyano-4-fluoro-pyrrolidin-1-yl]ethyl]-4-piperidyl]amino]quinoline-8-carboxamide]
21 | 3380 nM | 47.4 nM | N#C[C@@H]1C[C@H](F)CN1C(=O)CN1CCC(Nc2cc(=O)oc3ccccc23)CC1 [Example 379, (2S,4S)-4-fluoro-1-[2-[4-[(2-oxochromen-4-yl)amino]-1-piperidyl]acetyl]pyrrolidine-2-carbonitrile]
22 | 3150 nM | 80 nM | COc1ccnc2ccc(NC3CCN(CC(=O)N4C[C@@H](F)C[C@H]4C#N)CC3)cc12 [Example 382, (2S,4S)-4-fluoro-1-[2-[4-[(4-methoxy-6-quinolyl)amino]-1-piperidyl]acetyl]pyrrolidine-2-carbonitrile]
23 | 2800 nM | 39.3 nM | N#C[C@@H]1C[C@H](F)CN1C(=O)CN1CCC(Nc2ccnc(Br)c2)CC1 [Example 383, (2S,4S)-1-[2-[4-[(2-bromo-4-pyridyl)amino]-1-piperidyl]acetyl]-4-fluoro-pyrrolidine-2-carbonitrile]
24 | 2760 nM | 92.4 nM | CC(=O)N1CCc2c(NC3CCN(CC(=O)N4C[C@@H](F)C[C@H]4C#N)CC3)cccc21 [Example 373, (2S,4S)-1-[2-[4-[(1-acetylindolin-4-yl)amino]-1-piperidyl]acetyl]-4-fluoro-pyrrolidine-2-carbonitrile]
